Several values for one entry are separate records, joined by “and”; a condition that tells them apart may be missing. Equal values may be shown once.
System: 845751-090-R-J2-PDC tumor spheroid viability
Test: Anticancer human tumor 845751-090-R-J2-PDC patient-derived head and neck squamous carcinoma cell line growth inhibition [IpAb]
Settings: spheroids with HUVEC and MSC; for viability, T/C: stronger effect = lower value
Method in brief: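 Spheroids of 60% malignant cells, 25% HUVEC and 15% MSC were exposed to targeted agents combined with ipatasertib or abemaciclib. Doses started at or near clinical Cmax (10 microM when unknown) and fell in half-log steps.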

[1] = curve of first compound, second compound 0.1 µM
[2] = curve of first compound, second compound 0.316 µM
[3] = curve of first compound, second compound 1 µM
[4] = second compound 0.1 µM, first compound 0.0316 µM
[5] = second compound 0.1 µM, first compound 0.1 µM
[6] = second compound 0.1 µM, first compound 0.316 µM
[7] = second compound 0.1 µM, first compound 1 µM
[8] = second compound 0.1 µM, first compound 3.16 µM
[9] = second compound 0.1 µM, first compound 10 µM
[10] = second compound 0.316 µM, first compound 0.0316 µM
[11] = second compound 0.316 µM, first compound 0.1 µM
[12] = second compound 0.316 µM, first compound 0.316 µM
[13] = second compound 0.316 µM, first compound 1 µM
[14] = second compound 0.316 µM, first compound 3.16 µM
[15] = second compound 0.316 µM, first compound 10 µM
[16] = second compound 1 µM, first compound 0.0316 µM
[17] = second compound 1 µM, first compound 0.1 µM
[18] = second compound 1 µM, first compound 0.316 µM
[19] = second compound 1 µM, first compound 1 µM
[20] = second compound 1 µM, first compound 3.16 µM
[21] = second compound 1 µM, first compound 10 µM
[22] = curve of first compound, second compound 3.16 µM
[23] = curve of first compound, second compound 10 µM
[24] = second compound 3.16 µM, first compound 0.0316 µM
[25] = second compound 3.16 µM, first compound 0.1 µM
[26] = second compound 3.16 µM, first compound 0.316 µM
[27] = second compound 3.16 µM, first compound 1 µM
[28] = second compound 3.16 µM, first compound 3.16 µM
[29] = second compound 3.16 µM, first compound 10 µM
[30] = second compound 10 µM, first compound 0.0316 µM
[31] = second compound 10 µM, first compound 0.1 µM
[32] = second compound 10 µM, first compound 0.316 µM
[33] = second compound 10 µM, first compound 1 µM
[34] = second compound 10 µM, first compound 3.16 µM
[35] = second compound 10 µM, first compound 10 µM
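Also: spheroids exposed to compounds for 7 days before readout.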
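For viability, T/C in this document: CTG3D luminescence normalised so that 100% = DMSO vehicle control.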

Question: Which IC50 (curve of first compound, second compound 0.01 µM) does the source give for C=CCn1c(=O)c2cnc(Nc3ccc(N4CCN(C)CC4)cc3)nc2n1-c1cccc(C(C)(C)O)n1 + CCN1CCN(Cc2ccc(Nc3ncc(F)c(-c4cc(F)c5nc(C)n(C(C)C)c5c4)n3)nc2)CC1 here?
Answer: > 10000 nM

Question: And the IC50 (curve of first compound, second compound 0.0316 µM)?
Answer: 4170 nM

Question: And the IC50 [1]?
Answer: 2000 nM

Question: And the IC50 [2]?
Answer: 8970 nM

Question: And the IC50 [3]?
Answer: > 10000 nM

Question: And the viability, T/C (second compound 0.01 µM, first compound 0.0316 µM)?
Answer: 104%

Question: What about the viability, T/C (second compound 0.01 µM, first compound 0.1 µM) of the same compound?
Answer: 68.3%

Question: And the viability, T/C (second compound 0.01 µM, first compound 0.316 µM)?
Answer: 68.3%

Question: What about the viability, T/C (second compound 0.01 µM, first compound 1 µM) of the same compound?
Answer: 57.4%

Question: What about the viability, T/C (second compound 0.01 µM, first compound 3.16 µM) of the same compound?
Answer: 50.8%

Question: And the viability, T/C (second compound 0.01 µM, first compound 10 µM)?
Answer: 48.9%

Question: And the viability, T/C (second compound 0.0316 µM, first compound 0.0316 µM)?
Answer: 66.4%

Question: What about the viability, T/C (second compound 0.0316 µM, first compound 0.1 µM) of the same compound?
Answer: 71.4%

Question: What about the viability, T/C (second compound 0.0316 µM, first compound 0.316 µM) of the same compound?
Answer: 62.2%

Question: What about the viability, T/C (second compound 0.0316 µM, first compound 1 µM) of the same compound?
Answer: 60.8%

Question: What about the viability, T/C (second compound 0.0316 µM, first compound 3.16 µM) of the same compound?
Answer: 53.1%

Question: What about the viability, T/C (second compound 0.0316 µM, first compound 10 µM) of the same compound?
Answer: 40.8%

Question: What about the viability, T/C [4] of the same compound?
Answer: 66.8%

Question: What about the viability, T/C [5] of the same compound?
Answer: 64.8%

Question: What about the viability, T/C [6] of the same compound?
Answer: 60.8%

Question: What about the viability, T/C [7] of the same compound?
Answer: 47.7%

Question: And the viability, T/C [8]?
Answer: 50.5%

Question: What about the viability, T/C [9] of the same compound?
Answer: 43.2%

Question: What about the viability, T/C [10] of the same compound?
Answer: 59%

Question: What about the viability, T/C [11] of the same compound?
Answer: 68.7%

Question: And the viability, T/C [12]?
Answer: 69.2%

Question: And the viability, T/C [13]?
Answer: 60.3%

Question: What about the viability, T/C [14] of the same compound?
Answer: 59.8%

Question: And the viability, T/C [15]?
Answer: 49.1%

Question: And the viability, T/C [16]?
Answer: 88.9%

Question: And the viability, T/C [17]?
Answer: 97.6%

Question: And the viability, T/C [18]?
Answer: 83.9%

Question: And the viability, T/C [19]?
Answer: 107%

Question: What about the viability, T/C [20] of the same compound?
Answer: 95.7%

Question: What about the viability, T/C [21] of the same compound?
Answer: 66.7%

Question: How did the viability, T/C (compound 0.0316 µM) turn out when Cc1nc(NC(=O)N2CCCC2C(N)=O)sc1-c1ccnc(C(C)(C)C(F)(F)F)c1 (centres undefined) was run?
Answer: 79.1% and 55.6%

Question: What about the viability, T/C (compound 0.1 µM) of the same compound?
Answer: 54.8% and 65.7%

Question: And the viability, T/C (compound 0.316 µM)?
Answer: 36.8% and 46.5%

Question: What about the viability, T/C (compound 1 µM) of the same compound?
Answer: 25.4% and 25%

Question: And the viability, T/C (compound 3.16 µM)?
Answer: 17.9% and 18.6%

Question: And the viability, T/C (compound 10 µM)?
Answer: 10.7% and 14.8%

Question: What about the IC50 (curve of compound) of the same compound?
Answer: 138 nM and 262 nM

Question: How did the viability, T/C (compound 0.0316 µM) turn out when Cn1nccc1Nc1nccc(-c2ccn(C(CO)c3ccc(Cl)c(F)c3)c(=O)c2)n1 (centres undefined) was run?
Answer: 128% and 195%

Question: And the viability, T/C (compound 0.1 µM)?
Answer: 141% and 196%

Question: What about the viability, T/C (compound 0.316 µM) of the same compound?
Answer: 155% and 220%

Question: What about the viability, T/C (compound 1 µM) of the same compound?
Answer: 168% and 256%

Question: What about the viability, T/C (compound 3.16 µM) of the same compound?
Answer: 149% and 198%

Question: What about the viability, T/C (compound 10 µM) of the same compound?
Answer: 85.6% and 134%

Question: And the IC50 (curve of compound)?
Answer: > 10000 nM

Question: Which results are given for Cn1ncc(Cl)c1-c1cc(C(=O)NC(CN)Cc2cccc(F)c2)sc1Cl (centres undefined) + CC(C)NCC(C(=O)N1CCN(c2ncnc3c2C(C)CC3O)CC1)c1ccc(Cl)cc1?
Answer: IC50 [1]: 188 nM; IC50 [2]: < 31.6 nM; IC50 [3]: < 31.6 nM; IC50 [22]: < 31.6 nM; IC50 [23]: < 31.6 nM; viability, T/C [4]: 84.6%; viability, T/C [5]: 59.2%; viability, T/C [6]: 33.2%; viability, T/C [7]: 37%; viability, T/C [8]: 12.1%; viability, T/C [9]: 0.32%; viability, T/C [10]: 46.6%; viability, T/C [11]: 35.4%; viability, T/C [12]: 37.3%; viability, T/C [13]: 34.4%; viability, T/C [14]: 13.6%; viability, T/C [15]: 0.51%; viability, T/C [16]: 39.3%; viability, T/C [17]: 37.9%; viability, T/C [18]: 37.2%; viability, T/C [19]: 27.1%; viability, T/C [20]: 8.86%; viability, T/C [21]: 0.24%; viability, T/C [24]: 29%; viability, T/C [25]: 27%; viability, T/C [26]: 26.3%; viability, T/C [27]: 24.2%; viability, T/C [28]: 8.88%; viability, T/C [29]: 0.54%; viability, T/C [30]: 17.5%; viability, T/C [31]: 16.1%; viability, T/C [32]: 24.5%; viability, T/C [33]: 13.5%; viability, T/C [34]: 7.33%; viability, T/C [35]: 0.88%

Question: Which IC50 [1] does the source give for CC1(C)CCC(CN2CCN(c3ccc(C(=O)NS(=O)(=O)c4ccc(NCC5CCOCC5)c([N+](=O)[O-])c4)c(Oc4cnc5[nH]ccc5c4)c3)CC2)=C(c2ccc(Cl)cc2)C1 + CC(C)NCC(C(=O)N1CCN(c2ncnc3c2C(C)CC3O)CC1)c1ccc(Cl)cc1 here?
Answer: 5770 nM

Question: What about the IC50 [2] of the same compound?
Answer: < 31.6 nM

Question: And the IC50 [3]?
Answer: < 31.6 nM

Question: And the IC50 [22]?
Answer: < 31.6 nM

Question: What about the IC50 [23] of the same compound?
Answer: < 31.6 nM

Question: What about the viability, T/C [4] of the same compound?
Answer: 65.2%

Question: What about the viability, T/C [5] of the same compound?
Answer: 83%

Question: And the viability, T/C [6]?
Answer: 81.9%

Question: What about the viability, T/C [7] of the same compound?
Answer: 67%

Question: And the viability, T/C [8]?
Answer: 111%

Question: What about the viability, T/C [9] of the same compound?
Answer: 20.9%

Question: What about the viability, T/C [10] of the same compound?
Answer: 30.5%

Question: What about the viability, T/C [11] of the same compound?
Answer: 38.3%

Question: And the viability, T/C [12]?
Answer: 53.5%

Question: What about the viability, T/C [13] of the same compound?
Answer: 44%

Question: And the viability, T/C [14]?
Answer: 47%

Question: And the viability, T/C [15]?
Answer: 14.4%

Question: And the viability, T/C [16]?
Answer: 28.6%

Question: What about the viability, T/C [17] of the same compound?
Answer: 27.6%

Question: And the viability, T/C [18]?
Answer: 54.8%

Question: What about the viability, T/C [19] of the same compound?
Answer: 33.1%

Question: And the viability, T/C [20]?
Answer: 33.6%

Question: What about the viability, T/C [21] of the same compound?
Answer: 7.48%

Question: What about the viability, T/C [24] of the same compound?
Answer: 26.7%

Question: And the viability, T/C [25]?
Answer: 27.3%

Question: What about the viability, T/C [26] of the same compound?
Answer: 31.5%

Question: And the viability, T/C [27]?
Answer: 29.5%

Question: What about the viability, T/C [28] of the same compound?
Answer: 42.4%

Question: And the viability, T/C [29]?
Answer: 5.79%

Question: And the viability, T/C [30]?
Answer: 13.1%

Question: What about the viability, T/C [31] of the same compound?
Answer: 14.6%

Question: And the viability, T/C [32]?
Answer: 38.2%

Question: What about the viability, T/C [33] of the same compound?
Answer: 15.5%

Question: What about the viability, T/C [34] of the same compound?
Answer: 22%

Question: What about the viability, T/C [35] of the same compound?
Answer: 3.52%

From PubChem BioAssay AID2060333 (Molecular Pharmacology Branch, DTP, NCI, 2025)
